Measurements reported in US6653529B2, “Use of the maize X112 mutant ahas 2 gene and imidazolinone herbicides for selection of transgenic monocots, maize, rice and wheat plants resistant to the imidazolinone herbicides” (BASF Aktiengesellschaft, priority 2000, dated 2003).
“And” between values parts separate entries of the source, which are not always exact repeats. Equal values may be shown once.

What was measured:
[1] = system: 8692 (wild type control corn line); assay: Greenhouse spray test of corn lines with imidazolinone herbicides, injury score; assay type: in vivo; details: for Score, individual plants (0 dead plants, 5 healthy plants with no injury): 16 days after treatment; for M.S.: score 0 (dead) to 5 (healthy), 16 days
[2] = system: AHAS (acetohydroxyacid synthase) in extracts of Nortai, Line 26 and Line 29; assay: In vitro AHAS activity assay; assay type: biochemical, rice; details: a significant portion of the enzyme activity; compared with normal enzyme from Nortai; FIG. 2
Procedure: Previously published procedures were used for the extraction and in vitro assay for AHAS activity (Singh et al. 1988). Lower portions of the shoots were used as the source of plant tissue for the assay. The desalted crude extracts were used for the in vitro enzyme assays. Acetolactate produced by the enzyme was converted to acetoin, which was measured by the Westerfield assay system.
In vitro AHAS assays were performed to understand the basis of herbicide tolerance in the transgenic plants. Previously published procedure was used for the extraction and in vitro assay for AHAS activity (Singh et al. 1988). The lower portions of the shoots were used as the source of plant tissue for the assay. The desalted crude extracts were used for the in vitro enzyme assays. Acetolactate produced by the enzyme was converted to acetoin, which was measured by the Westerfield assay system (Westerfield 1945). The specific activity of AHAS was about 30% higher in Line 26 (67 nmoles/mg protein/h) and Line 29 (64 nmoles/mg protein/h) compared to the activity in Nortai (Nt) (50 nmoles/mg protein/h).

[3] = system: rice plants (transgenic Lines 26 and 29; Nt control); assay: Greenhouse herbicide tests on rice; assay type: in vivo; details: for average seed set in two transgenic lines: PURSUIT, RAPTOR, CADRE, SCEPTER at all rates tested, ARSENAL 1 to 2×; for rate at which growth of transgenic plants was slightly affected: post-emergence, fresh weight and visual observation
Excerpt: We evaluated the response of transgenic rice to PURSUIT® imazethapyr application in the greenhouse. In this experiment, we included 2 transgenic lines and their untransformed counterpart (Nt). The transgenic lines, designated as Line 26 and 29, were T3 progeny derived from previously identified homozygous resistant transgenic plants containing the maize XI12 ahas2 gene driven by its own promoter. All seeds were pre-germinated in water for 2-3 days then grown in a planting mixture consisting of 1:1 soil and MetroMix 360 (The Scotts Company, Marysville, Ohio 43040) in 6-inch pots (2 seeds per pot) in the greenhouse and sprayed with PURSUIT® imazethapyr at 63, 125, or 250 g ai/ha. For post-emergence application, the plants were sprayed 15 days after seeding, at which time most plants had 3 leaves. For pre-emergence treatment, PURSUIT® imazethapyr was sprayed one day after seeding. Each treatment contained 20 plants and, and 3 replicates per treatment. One set of materials was not sprayed and used as control. The plants were grown in the greenhouse and harvested at maturity. The amount of PURSUIT® imazethapyr applied in this study (63, 125, or 250 g ai/ha) was close to 1, 2 or 4× field application rate for imi-resistant corn (refer to Table 3) since PURSUIT® imazethapyr is not currently labeled for use in rice fields. A custom designed belt sprayer was operated as described (Newhouse et al. 1992) for all herbicide applications. Five plants from each treatment were randomly chosen and individually measured for morphological traits. Means and standard deviations were calculated over three replications. Plant heights were measured from the base of the plant to the tip of the flag leaf 93 days after herbicide applications (DAH) and number of tillers per plant were counted 102-103 DAH. Data on number of panicles per plant and yield were collected after plants were harvested.
A total of 9 herbicides, 5 imidazolinones, two rice herbicides and ACCENT® (nicosulfuron) and CLASSIC® (clorimuron-ethyl) were applied in this study. Materials and methods were basically the same as described above, except that instead of 6″ pots, flats with 18 (3″×3″ per cell) cells were used, and 10-12 seeds were planted to one 3″×3″ cell. Ten plants were maintained in one cell in the post-emergence application. Each herbicide was sprayed at 4 different rates, 1, 2, 4, and 6×, as either pre or post-emergence applications with three replications per treatment. The name and amount of herbicide applied in this experiment and information relevant to their commercial applications are listed in Table 3. For simplicity and convenience, the lowest concentration used is referred as 1× rate, 2, 4 and 6× rates can be calculated as multiples of 1×.
To monitor plant response to various herbicides, data on fresh weight was collected. For pre-emergence applications, all plants from one cell were harvested 32 days after spraying (36-day old plants) and weighed. Twenty-nine days after herbicide application, 5 plants (44-day old plants) from each cell in the post-emergence application, were cut and weighed individually. Mean fresh weight for each treatment was calculated over three replications. The remaining 5 plants were grown in the greenhouse to maturity at which time, panicles of 3 plants were collected, and number of filled seeds and number of total kernels were counted to determine percentage of seed set.

[4] = system: T2 seeds of transgenic rice (T0 plants No. 26 and 29); assay: Seed germination test on imazethapyr; assay type: in vivo; details: 5 μM imazethapyr, 1 month treatment
Procedure: (§1) Three tests were performed to evaluate herbicide resistance of T2 progeny of transgenic rice. T2 progeny were first evaluated by a seed germination test followed by the greenhouse spray test and PCR analysis. As a prelude to testing the transgenic plants, an experiment was conducted to germinate untransformed rice seeds at imazethapyr concentrations ranging from 0.1 to 10 μM. […] The greenhouse spray test and PCR analysis were used to further confirm the results of the seed germination test with consistent identification of lines as resistant homozygous, susceptible homozygous or segregating hemizygous.
(§2) T2 seeds harvested from individual T1 plants were sterilized in 50% Clorox® bleach (2.3% sodium hyperchlorite) for 30 min followed by a thorough rinse with autoclaved water and pre-germinated in water for 2-3 days. Thirty to 35 pre-germinated seeds were transferred to the surface of folded paper towels placed perpendicular to the bottom of a Magenta box (Sigma, St. Louis, Mo.) to which 20 ml of H2O containing 5 μM imazethapyr (AC263,499, tech grade) was added. The seedlings were grown under 12 hr light at 26° C. for about a month. Seedlings that survived the imazethapyr treatment were scored as resistant and those that died as susceptible. 5.0 μM imazethapyr, equivalent to 5 times the threshold, was used for subsequent seed germination tests of the T2 generation. T2 seeds harvested from 16 T1 lines derived from T0 plant No. 26 and those from 15 T1 lines derived from T0 plant No. 29 were screened in the seed germination tests.

untransformed rice seeds = assay: Seed germination test on imazethapyr; assay type: in vivo
Procedure: as §1, §2

[5] = 4×: PURSUIT 250, RAPTOR 160, ARSENAL 96, CADRE 400 g/ha
[6] = 8×: PURSUIT 500, RAPTOR 320, ARSENAL 192, CADRE 800 g/ha
[7] = 16×: RAPTOR 640 g/ha, ARSENAL 384 g/ha, CADRE 1.6 kg/ha

SMILES	Score, individual plants (0 dead plants, 5 healthy plants with no injury) [1, 5]	M.S. [1, 5]	Score, individual plants (0 dead plants, 5 healthy plants with no injury) [1, 6]	M.S. [1, 6]	Score, individual plants (0 dead plants, 5 healthy plants with no injury) [1, 7]	M.S. [1, 7]	inhibition of AHAS activity from tolerant Line 26 and Line 29 [2]	seed set in the two transgenic lines ([3]; 4× (96 g ai/ha) and 6× (144 g ai/ha)) [%]	average seed set in two transgenic lines [3]	effect on seed set of transgenic plants ([3]; higher rates)	rate at which growth of transgenic plants was slightly affected [3] [×]	fate of resistant transgenic plants [4]	fate of control seeds (untransformed rice seeds; 5 μM imazethapyr, 1 month treatment)	concentration at which untransformed seeds were completely inhibited (untransformed rice seeds; germination at 0.1 to 10 μM) [µM]	Score, individual plants (0 dead plants, 5 healthy plants with no injury) ([1]; 20×: PURSUIT 1.25 kg/ha)	M.S. ([1]; 20×: PURSUIT 1.25 kg/ha)	fate of transgenic plants of Lines 26 and 29 ([3]; pre-emergence, 63, 125, 250 g/ha)	rate at which growth of both transgenic lines was affected ([3]; pre-emergence) [×]
CC(C)C1(C)N=C(c2ncccc2C(=O)O)NC1=O (centres unmarked) [ARSENAL ®, imazapyr]	0	0	0	0	0	0	insensitive to inhibition	≤ 20	about 85%	severe sterility	6							
Cc1cnc(C2=NC(=O)C(C)(C(C)C)N2)c(C(=O)O)c1 (centres unmarked) [CADRE ®, imazameth]	0	0	0	0	0	0			about 85%		6							
CCc1cnc(C2=NC(C)(C(C)C)C(=O)N2)c(C(=O)O)c1 (centres unmarked) [PURSUIT ®, imazethapyr]	2 (3×) and 1 (2×)	1.6	0	0			insensitive to inhibition		about 85%		6	survived and continued to grow	all control seeds died	1	0	0	survived at all rates applied	
COCc1cnc(C2=NC(C)(C(C)C)C(=O)N2)c(C(=O)O)c1 (centres unmarked) [RAPTOR ®, imazamox]	0	0	0	0	0	0			about 85%		6							6
